Experimental data: US7193127B1, “Codeinone reductase from alkaloid poppy” (priority 1999, dated 2007)
Entries after “also recorded” stand apart in the source; their conditions may differ. Where two headings read alike, the source gives them in different places.

What was measured:
COR1.2 = COR1.2 (Papaver somniferum, UniProt Q9SQ69); test: Km determination with purified recombinant codeinone reductase isoform COR1.2
Method: (§1) The four codeinone reductase isoform-calmodulin-binding peptide fusion proteins were purified from E. coli lysates in one step with a calmodulin affinity column.
(§2) For all isoforms, the temperature optimum for reduction (physiologically forward reaction) was 28° C., for oxidation (physiologically reverse reaction) was 30° C., the pH optimum for reduction was 6.8 and for oxidation was 9.0.
(§3) For enzyme assays, single colonies were picked and grown in 3 ml Luria-Bertani medium containing 100 μg/ml ampicillin at 37° C. to an OD590 of 0.8. For protein purification, single colonies were picked and grown in 1 l Luria-Bertani medium containing 100 μg/ml ampicillin at 37° C. to an OD590 of 1.8. […] The bacterial pellet from a 3 ml culture was resuspended in 0.5 ml buffer and that from a one liter culture in 100 ml buffer. The cells were ruptured by sonication.

COR1.3 = COR1.3 (Papaver somniferum, UniProt Q9SQ68); test: Km determination with purified recombinant codeinone reductase isoform COR1.3
Chain of COR1.3 (Q9SQ68 whole entry, canonical isoform): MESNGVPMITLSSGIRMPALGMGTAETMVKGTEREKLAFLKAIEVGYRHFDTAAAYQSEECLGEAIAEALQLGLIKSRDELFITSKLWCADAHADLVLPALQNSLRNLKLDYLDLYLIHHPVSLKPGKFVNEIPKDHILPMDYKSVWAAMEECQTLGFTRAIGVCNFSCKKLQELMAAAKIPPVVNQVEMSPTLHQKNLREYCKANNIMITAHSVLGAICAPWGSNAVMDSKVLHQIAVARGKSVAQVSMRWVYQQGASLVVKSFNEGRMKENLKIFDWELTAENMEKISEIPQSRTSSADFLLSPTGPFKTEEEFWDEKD
Method: as §1, §2, §3

[1] = target: T1, reductase of the 6′-deoxychalcone synthase complex (Glycine max, UniProt P26690); test: Codeinone/codeine conversion by the reductase of the 6'-deoxychalcone synthase complex; type: biochemical, soybean; settings: in the presence of NADPH
T1 sequence (P26690 1-315): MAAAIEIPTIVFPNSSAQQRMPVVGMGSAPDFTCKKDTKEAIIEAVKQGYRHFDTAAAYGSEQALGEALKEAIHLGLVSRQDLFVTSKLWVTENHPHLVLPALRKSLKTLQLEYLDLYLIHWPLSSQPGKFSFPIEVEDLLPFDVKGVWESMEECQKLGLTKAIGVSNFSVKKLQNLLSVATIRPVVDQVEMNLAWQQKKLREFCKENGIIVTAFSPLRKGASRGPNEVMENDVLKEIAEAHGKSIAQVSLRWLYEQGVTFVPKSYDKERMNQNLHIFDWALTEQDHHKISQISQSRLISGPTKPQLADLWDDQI

[2] = system: codeinone reductase isoforms; type: biochemical, Papaver somniferum; settings: for serves as substrate in the reductive reaction: NADPH as cofactor, physiologically forward reaction
Method: The two other potential substrates for reduction, the 1,2-dehydroreticulinium ion and salutaridine (FIG. 1), or for the physiologically reverse reaction, salutaridinol and (R)-reticuline, were tested as substrates; with the codeinone reductase isoforms.
In order to test for a functional evolutionary relationship between isoflavonoid and alkaloid anabolism, codeinone reductase was analyzed for the ability to substitute for the reductase in the formation of 6-deoxychalcone in co-action with either native chalcone synthase or native stilbene synthase from Pinus sylvestris.

[3] = system: COc1ccc2c3c1O[C@H]1C(=O)C=C[C@H]4[C@@H](C2)N(C)CC[C@]314; test: cells, lysate or membranes named
Method: as §1, §2, §3

[4] = analogs and aldo/keto reductase family substrates, direction not given
[5] = NADP as cofactor, physiologically reverse reaction

Chain of COR1.2 (Q9SQ69 whole entry, canonical isoform): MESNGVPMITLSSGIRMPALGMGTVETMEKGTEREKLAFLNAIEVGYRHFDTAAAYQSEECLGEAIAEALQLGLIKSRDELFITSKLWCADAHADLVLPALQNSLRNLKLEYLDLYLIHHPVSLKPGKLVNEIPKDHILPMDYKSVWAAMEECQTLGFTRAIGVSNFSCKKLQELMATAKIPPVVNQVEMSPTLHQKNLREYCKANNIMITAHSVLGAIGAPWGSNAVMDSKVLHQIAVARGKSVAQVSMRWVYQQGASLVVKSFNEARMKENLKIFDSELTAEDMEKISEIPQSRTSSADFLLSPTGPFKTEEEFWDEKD

Molecule: NC(=O)c1ccc[n+]([C@@H]2O[C@H](COP(=O)([O-])OP(=O)(O)OC[C@H]3O[C@@H](n4cnc5c(N)ncnc54)[C@H](OP(=O)(O)O)[C@@H]3O)[C@@H](O)[C@H]2O)c1 [NADP]
- Km (COR1.2): 58 µM
- Km (COR1.3): 45 µM

Molecule: COc1ccc2c3c1O[C@H]1C(=O)C=C[C@H]4[C@@H](C2)N(C)CC[C@]314 [codeinone]
- reduction by the reductase of the 6′-deoxychalcone synthase complex [1]: could neither reduce

Molecule: O=C1C=CCCC1 [2-cyclohexene-1-one]
- transformed by codeinone reductase (tested as substrate) [2, 4]: not transformed

Molecule: O=C1CCCCC1 [cyclohexanone]
- transformed by codeinone reductase (tested as substrate) [2, 4]: not transformed

Molecule: COC1=C[C@]23CCN(C)[C@H](Cc4ccc(OC)c(O)c42)C3=CC1=O [salutaridine]
- serves as substrate in the reductive reaction [2]: None of these alkaloids served as substrate

Molecule: COC1=C[C@]23CCN(C)[C@H](Cc4ccc(OC)c(O)c42)C3=C[C@@H]1O [salutaridinol]
- serves as substrate in the oxidative reaction [2, 5]: None of these alkaloids served as substrate

Molecule: COc1ccc(C[C@H]2c3cc(O)c(OC)cc3CCN2C)cc1O [(S)-reticuline]
- transformed by codeinone reductase (tested as substrate) [2, 4]: inactive

Molecule: NC(=O)C1=CN([C@@H]2O[C@H](COP(=O)(O)OP(=O)(O)OC[C@H]3O[C@@H](n4cnc5c(N)ncnc54)[C@H](O)[C@@H]3O)[C@@H](O)[C@H]2O)C=CC1 [NADH]
- ability to substitute for NADPH as cofactor ([2]; any of the isoforms): could not substitute for NADPH

Molecule: C[C@]12CC[C@H]3[C@@H](CC=C4C[C@@H](O)CC[C@@]43C)[C@@H]1CC[C@@H]2O [5-androstene-3β,17β-diol]
- transformed by codeinone reductase (tested as substrate) [2]: not transformed

Molecule: COc1ccc2c3c1O[C@H]1[C@@H](O)C=C[C@H]4[C@@H](C2)NCC[C@@]341 [norcodeine]
- transformed by codeinone reductase (tested as substrate) [2]: inactive

Molecule: COc1ccc(C[C@@H]2NCCc3cc(OC)c(O)cc32)cc1O (mixture of isomers) [(S)-norreticuline, (S) and (R)-norreticuline]
- transformed by codeinone reductase (tested as substrate) [2, 4]: inactive

Molecule: C[C@]12CCC(=O)C[C@@H]1CC[C@@H]1[C@@H]2CC[C@]2(C)[C@@H](O)CC[C@@H]12 [5α-androstan-17β-ol-3-one]
- transformed by codeinone reductase (tested as substrate) [2]: not transformed

Molecule: COc1ccc2c3c1O[C@H]1C(=O)CC[C@H]4[C@@H](C2)N(C)CC[C@]314 [hydrocodone]
- serves as substrate in the reductive reaction [2]: functions

Molecule: COc1ccc2c3c1O[C@H]1[C@@H](O)CC[C@H]4[C@@H](C2)N(C)CC[C@@]341 [dihydrocodeine]
- serves as substrate in the oxidative reaction [2, 5]: functions

Molecule: CC(C)CCC[C@@H](C)[C@H]1CC[C@H]2[C@@H]3CC[C@H]4C[C@@H](O)CC[C@]4(C)[C@H]3CC[C@]12C [5α-cholestane-3β-ol]
- transformed by codeinone reductase (tested as substrate) [2, 4]: not transformed

Molecule: O=C[C@H](O)[C@@H](O)[C@H](O)CO [D-xylose]
- transformed by codeinone reductase (tested as substrate) [2, 4]: not transformed

Molecule: CCCCC[C@H](O)/C=C/[C@H]1C(=O)C[C@H](O)[C@@H]1CCCCCCC(=O)O [prostaglandin D1]
- transformed by codeinone reductase (tested as substrate) [2, 4]: not transformed

Molecule: O=P(O)(O)OC[C@@H](O)[C@@H](O)[C@H](O)[C@@H](O)CO [D-Sorbitol-6-phosphate]
- transformed by codeinone reductase (tested as substrate) [2, 4]: not transformed

Molecule: CN1CC[C@]23c4c5ccc(O)c4O[C@H]2C(=O)C=C[C@H]3[C@H]1C5 [morphinone]
- serves as substrate in the reductive reaction [2]: functions; also recorded: able to reduce

Molecule: COR1.3 (Papaver somniferum)
- Km [3]: 48 µM

Molecule: COc1ccc(CC2=[N+](C)CCc3cc(OC)c(O)cc32)cc1O [1,2-dehydroreticulinium ion]
- serves as substrate in the reductive reaction [2]: None of these alkaloids served as substrate

Molecule: COc1ccc(C[C@@H]2c3cc(O)c(OC)cc3CCN2C)cc1O [(R)-reticuline]
- serves as substrate in the oxidative reaction [2, 5]: None of these alkaloids served as substrate

Molecule: COR1.2 (Papaver somniferum)
- Km [3]: 62 µM

Molecule: CN1CC[C@]23c4c5ccc(O)c4O[C@H]2[C@@H](O)C=C[C@H]3[C@H]1C5 [morphine]
- serves as substrate in the oxidative reaction [2]: functions

Molecule: COc1ccc(C[C@H]2NCCc3cc(OC)c(O)cc32)cc1O [(R)-norreticuline]
- transformed by codeinone reductase (tested as substrate) [2, 4]: inactive

Molecule: NC(=O)C1=CN([C@@H]2O[C@H](COP(=O)(O)OP(=O)(O)OC[C@H]3O[C@@H](n4cnc5c(N)ncnc54)[C@H](OP(=O)(O)O)[C@@H]3O)[C@@H](O)[C@H]2O)C=CC1 [NADPH]
- Km (COR1.2): 220 µM
